Data taken from patent publication US7141691B2, “Protein-bound derivatives of platinum complexes containing cyclobutane1, 1-dicarboxyllate ligands” (KTB Tumorforschungs GmbH, priority 2003, dated 2006).

System: MaTu (mammary carcinoma)
Assay: Efficacy in vivo, MaTu tumor model in naked mice (change in tumor volume)
Conditions: DACH-Pt-CB-1-Mal 75 and 100 mg/kg i.v. once on day 7, carboplatin 100 mg/kg once on day 7 or 75 mg/kg on days 7 and 14
Description: The invention is elucidated in more detail by the following examples in conjunction with the figures. […] Animals: naked mice Tumor model: MaTu (mammary carcinoma) Treatment: DACH-Pt-CB-1-Mal (75 and 100 mg/kg) and carboplatin (100 mg/kg) once on day 7, carboplatin (75 mg/kg) on each of days 7 and 14; i.v. (carboplatin and derivatives each in 0.15 0.3 ml glucose phosphate buffer pH 6.5).

O=C(CCOCCN1C(=O)C=CC1=O)OC1CC2(C1)C(=O)[O][Pt]1([NH]C3CCCC[C@H]3[NH]1)[O]C2=O (stereo partly drawn) [DACH-Pt-CB-1-Mal, trans-(R,R/S,S)-cyclohexane-1,2-diaminoplatinum(II)-[3-(6-maleinimido-4-oxacaproyl)cyclobutane-1,1-dicarboxylate]]
in vivo efficacy (change in the tumor volume) compared to carboplatin: increased compared to carboplatin
